Source: the NIST ThermoML archive (doi:10.1021/acs.jced.9b00147)
Values joined by “and” are separate entries in the source; they are usually repeats but may differ in a detail not shown here. Equal entries are not always repeated. ± gives the expanded uncertainty stated by the source.

Assays:
[1] = 101.3 kPa, Liquid; for speed of sound: Single path-length method; for mass density: Vibrating tube method
[2] = xn = mol fraction of the nth substance listed; details: 101.3 kPa, Liquid, x2 = 0; for speed of sound: Single path-length method; for mass density: Vibrating tube method

SMILES	speed of sound ([1]; 293.15 K)	mass density ([1]; 293.15 K)	speed of sound ([1]; 303.15 K)	mass density ([1]; 303.15 K)	speed of sound ([1]; 313.15 K)	mass density ([1]; 313.15 K)	speed of sound ([1]; 323.15 K)	mass density ([1]; 323.15 K)	speed of sound ([2]; 293.15 K)	mass density ([2]; 293.15 K)	speed of sound ([2]; 303.15 K)	mass density ([2]; 303.15 K)	speed of sound ([2]; 313.15 K)	mass density ([2]; 313.15 K)	speed of sound ([2]; 323.15 K)	mass density ([2]; 323.15 K)
CC(=O)[O-].OCC[NH2+]CCO [2,2'-azanediylbis(ethanol) acetate]	1884.7 ± 20 m/s	1180 ± 6 kg/m3	1828.2 ± 20 m/s	1173 ± 6 kg/m3	1788.6 ± 20 m/s	1167 ± 6 kg/m3	1756 ± 20 m/s	1160 ± 6 kg/m3	–	–	–	–	–	–	–	–
CC(=O)[O-].[NH3+]CCO [2-hydroxyethylammonium acetate]	1812.9 ± 20 m/s	1150 ± 6 kg/m3	1781.2 ± 20 m/s	1144 ± 6 kg/m3	1754.7 ± 20 m/s	1139 ± 6 kg/m3	1730.9 ± 20 m/s	1133 ± 6 kg/m3 and 1132 ± 6 kg/m3	–	–	–	–	–	–	–	–
CCCO [propan-1-ol]	1223.4 ± 20 m/s	803.6 ± 6 kg/m3	1189.4 ± 20 m/s	795.7 ± 6 kg/m3	1155.5 ± 20 m/s	787.5 ± 6 kg/m3	1122 ± 20 m/s	779.2 ± 6 kg/m3	–	–	–	–	–	–	–	–

Further lines, results first:

speed of sound ([1]; 293.15 K)	mass density ([1]; 293.15 K)	speed of sound ([1]; 303.15 K)	mass density ([1]; 303.15 K)	speed of sound ([1]; 313.15 K)	mass density ([1]; 313.15 K)	speed of sound ([1]; 323.15 K)	mass density ([1]; 323.15 K)	speed of sound ([2]; 293.15 K)	mass density ([2]; 293.15 K)	speed of sound ([2]; 303.15 K)	mass density ([2]; 303.15 K)	speed of sound ([2]; 313.15 K)	mass density ([2]; 313.15 K)	speed of sound ([2]; 323.15 K)	mass density ([2]; 323.15 K)	SMILES
–	–	–	–	–	–	–	–	1223.4 ± 20 m/s	803.6 ± 6 kg/m3	1189.4 ± 20 m/s	795.7 ± 6 kg/m3	1155.5 ± 20 m/s	787.5 ± 6 kg/m3	1122 ± 20 m/s	779.2 ± 6 kg/m3	CCCO [propan-1-ol] + CC(=O)[O-].OCC[NH2+]CCO
–	–	–	–	–	–	–	–	1223.4 ± 20 m/s	803.6 ± 6 kg/m3	1189.4 ± 20 m/s	795.7 ± 6 kg/m3	1155.5 ± 20 m/s	787.5 ± 6 kg/m3	1122 ± 20 m/s	779.2 ± 6 kg/m3	CCCO [propan-1-ol] + CC(=O)[O-].[NH3+]CCO
1174.3 ± 20 m/s	791.5 ± 6 kg/m3	1122.4 ± 20 m/s	777 ± 6 kg/m3	1087.4 ± 20 m/s	768.2 ± 6 kg/m3	1051.6 ± 20 m/s	759 ± 6 kg/m3	–	–	–	–	–	–	–	–	CC(C)O [propan-2-ol]
–	–	–	–	–	–	–	–	1174.3 ± 20 m/s	791.5 ± 6 kg/m3	1122.4 ± 20 m/s	777 ± 6 kg/m3	1087.4 ± 20 m/s	768.2 ± 6 kg/m3	1051.6 ± 20 m/s	759 ± 6 kg/m3	CC(C)O [propan-2-ol] + CC(=O)[O-].OCC[NH2+]CCO
–	–	–	–	–	–	–	–	1174.3 ± 20 m/s	791.5 ± 6 kg/m3	1122.4 ± 20 m/s	777 ± 6 kg/m3	1087.4 ± 20 m/s	768.2 ± 6 kg/m3	1051.6 ± 20 m/s	759 ± 6 kg/m3	CC(C)O [propan-2-ol] + CC(=O)[O-].[NH3+]CCO
